Assay type in all cases: functional
The test system of experiment [1] is Escherichia coli. As to the kind of experiment: Antimicrobial activity against ESBL producing Escherichia coli isolated from patient bloodstream assessed as resistant isolate by Etest method.
Experiment [2] concerns Escherichia coli. Briefly: Antimicrobial activity against ESBL producing Escherichia coli isolated from patient bloodstream assessed as resistant isolate by Etest method in presence of clavulanic acid.
Experiment [3] deals with Escherichia coli. Briefly: Antimicrobial activity against ESBL producing Escherichia coli isolated from patient bloodstream assessed as resistant isolate by Etest method in presence of Tazobactam.

On to `NCC[C@H](O)C(=O)N[C@@H]1C[C@H](N)[C@@H](O[C@H]2O[C@H](CN)[C@@H](O)[C@H](O)[C@H]2O)[C@H](O)[C@H]1O[C@H]1O[C@H](CO)[C@@H](O)[C@H](N)[C@H]1O` [AMIKACIN], for which the Activity with Escherichia coli [1] is recorded as 0%.
Regarding `CC1(C)S[C@@H]2[C@H](NC(=O)[C@H](N)c3ccc(O)cc3)C(=O)N2[C@H]1C(=O)O` [AMOXICILLIN], the Activity in the experiment with Escherichia coli [2] was 30.2%.
Consider `O=C(O)c1cn(C2CC2)c2cc(N3CCNCC3)c(F)cc2c1=O` [CIPROFLOXACIN], for which the Activity in the experiment on Escherichia coli [1] is recorded as 92.2%.
With `C[C@@H](O)[C@H]1C(=O)N2C(C(=O)O)=C(SCCNC=N)C[C@H]12` [IMIPENEM ANHYDROUS], in the experiment with Escherichia coli [1], the Activity was 0%.
On the same count and under the same terms, the result for `C[C@H]1COc2c(N3CCN(C)CC3)c(F)cc3c(=O)c(C(=O)O)cn1c23.C[C@H]1COc2c(N3CCN(C)CC3)c(F)cc3c(=O)c(C(=O)O)cn1c23.O` [LEVOFLOXACIN] reads 92.2%; that for `C[C@@H](O)[C@H]1C(=O)N2C(C(=O)O)=C(S[C@@H]3CN[C@H](C(=O)N(C)C)C3)[C@H](C)[C@H]12` [MEROPENEM], 0%.
With `C[C@]1(Cn2ccnn2)[C@H](C(=O)O)N2C(=O)C[C@H]2S1(=O)=O` [TAZOBACTAM], the Activity in the experiment with Escherichia coli [3] is reported as 15.5%.
Regarding GENTAMICIN, in the experiment with Escherichia coli [1], the Activity turned out to be 33.3%.
